Data taken from ChEMBL document CHEMBL2040796, “Synthesis and biological activity of both enantiomers of kujigamberol isolated from 85-million-years-old Kuji amber” (Bioorg Med Chem Lett, 2012).
Activity calls are given as the source filed them. The rule behind the calls is not given here.

Assays:
[1] = system: HL-60; test: Cytotoxicity against human HL60 cells; format: functional, cell-based
[2] = system: Saccharomyces cerevisiae; test: Antimicrobial activity against Saccharomyces cerevisiae harboring zds1delta, erg3delta pdr1delta pdr3delta mutant assessed as clear growth restored zone at 0.5 to 0.0156 ug/spot; format: functional, organism-based

Row | Compound | Activity [1] | Activity [2] | IC50 [1] [µM]
1 | COC(=O)C1(C)CCCc2ccccc21 (configuration not stated) | inactive | inactive | 
2 | OCC1CCCc2ccccc21 (configuration not stated) | inactive | inactive | 
3 | Cc1ccc2c(c1CCC(C)C)CCCC2CO (configuration not stated) | Active | Active | 
4 | CC1(CO)CCCc2ccccc21 (configuration not stated) | inactive | inactive | 
5 | Cc1ccc2c(c1CCC(C)C)CCC[C@@]2(C)CO | Active | Active | 
6 | Cc1ccc2c(c1CCC(C)C)CCC[C@]2(C)CO [KUJIGAMBEROL] |  | Active | 24
